Test results as given in the NIST ThermoML archive (doi:10.1021/acs.jced.6b00867).

Tests used:
[1] = 352.2 K; Liquid; Ebulliometric method (Recirculating still)
[2] = refractive index (Na D-line) (dimensionless); conditions: 101 kPa, Liquid, Standard Abbe refractometry
[3] = refractive index (Na D-line) (dimensionless); xn = mol fraction of the nth substance listed; conditions: 101 kPa, Liquid, Standard Abbe refractometry

O=CO [formic acid]
Conditions	vapor or sublimation pressure [kPa]
[1]	51

[2]
Conditions	refractive index
293.2 K	1.3714
298.2 K	1.3699

O=CO [formic acid] + CC1CCC(=O)O1
[3], x1 = 1
Conditions	refractive index
293.2 K	1.3714
298.2 K	1.3699

CC1CCC(=O)O1 (stereo not drawn) [γ-valerolactone]
[2]
Conditions	refractive index
293.2 K	1.4339
298.2 K	1.4316

CC1CCC(=O)O1 (stereo not drawn) [γ-valerolactone] + O=CO
refractive index, [3]
Conditions	293.2 K	298.2 K
x2 = 0	1.4339	1.4316
x2 = 0.0697	1.4314	1.4292
x2 = 0.1233	1.4295	1.4272
x2 = 0.2013	1.4265	1.4245
x2 = 0.3394	1.421	1.4191
x2 = 0.4898	1.4138	1.4118
x2 = 0.593	1.4078	1.4058
x2 = 0.6258	1.4056	1.4036
x2 = 0.6744	1.4021	1.4002
x2 = 0.7799	1.3941	1.3921
x2 = 0.8539	1.3875	1.3856
x2 = 0.8902	1.3839	1.3821
x2 = 0.9828	1.3739	1.3719
